Activity calls are given as the source filed them. The calls are words filed in the database; no cut-off is given here.
Legend:
[1] = target: DNA topoisomerase 2-alpha (Homo sapiens) (UniProt P11388); experiment: Inhibition of Top2alpha (unknown origin)-mediated pBR322 DNA cleavage using ethidium bromide staining at 100 uM after 30 mins by electrophoresis analysis
[2] = target: T1, DNA topoisomerase 1 (Homo sapiens) (UniProt P11387); experiment: Inhibition of Top1 (unknown origin)-mediated pBR322 DNA cleavage using ethidium bromide staining at 200 uM after 15 mins by electrophoresis analysis
T1 sequence (whole entry): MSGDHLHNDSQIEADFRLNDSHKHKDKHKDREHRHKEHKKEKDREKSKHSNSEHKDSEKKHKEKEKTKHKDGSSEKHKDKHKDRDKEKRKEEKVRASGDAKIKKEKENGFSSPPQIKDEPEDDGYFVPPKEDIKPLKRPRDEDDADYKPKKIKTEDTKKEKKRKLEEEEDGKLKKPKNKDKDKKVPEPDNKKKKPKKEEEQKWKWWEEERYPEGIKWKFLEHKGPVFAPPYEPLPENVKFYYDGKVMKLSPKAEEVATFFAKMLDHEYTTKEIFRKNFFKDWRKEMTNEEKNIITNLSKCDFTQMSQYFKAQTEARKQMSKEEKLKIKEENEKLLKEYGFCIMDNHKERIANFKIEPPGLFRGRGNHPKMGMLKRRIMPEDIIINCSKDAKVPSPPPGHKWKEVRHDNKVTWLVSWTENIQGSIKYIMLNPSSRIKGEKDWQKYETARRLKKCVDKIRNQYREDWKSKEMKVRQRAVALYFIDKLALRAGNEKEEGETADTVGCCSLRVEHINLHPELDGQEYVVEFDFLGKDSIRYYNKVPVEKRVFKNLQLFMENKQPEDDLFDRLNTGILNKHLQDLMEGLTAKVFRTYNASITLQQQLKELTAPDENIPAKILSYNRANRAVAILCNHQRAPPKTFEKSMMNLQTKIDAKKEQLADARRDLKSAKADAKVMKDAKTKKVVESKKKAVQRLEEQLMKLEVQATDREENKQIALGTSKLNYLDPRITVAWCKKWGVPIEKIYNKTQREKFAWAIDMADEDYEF

MDA-MB-435 = experiment: Cytotoxicity against human MDA-MB-435 cells after 72 hrs by MTT assay; format: functional, cell-based; conditions: MDA-MB-435, 72 h
HCT-116 [3] = experiment: Cytotoxicity against human HCT116 cells after 72 hrs by MTT assay; format: functional, cell-based; conditions: HCT-116, 72 h
A549 [4] = experiment: Cytotoxicity against human A549 cells after 72 hrs by MTT assay; format: functional, cell-based; conditions: A549, 72 h
[5] = Cytotoxicity against human SKHEP1 cells after 72 hrs by MTT assay; format: functional, cell-based; conditions: SK-HEP1, 72 h
HCT-116 [6] = experiment: Antitumor activity against human HCT116 cells xenografted in BALB/C mouse assessed as tumor growth inhibition at 2 mg/kg, ip for 5 days; format: functional, organism-based
[7] = Cytotoxicity against human Bel7404 cells after 72 hrs by MTT assay; format: functional, cell-based; conditions: BEL-7404, 72 h
[8] = Cytotoxicity against human MV-3 cells after 72 hrs by MTT assay; format: functional, cell-based; conditions: MV-3, 72 h
NCI-H446 = experiment: Cytotoxicity against human NCI-H446 cells after 72 hrs by MTT assay; format: functional, cell-based; conditions: NCI-H446, 72 h
[9] = Cytotoxicity against human SW579 cells after 72 hrs by MTT assay; format: functional, cell-based; conditions: SW579, 72 h
K562 = experiment: Cytotoxicity against human K562 cells after 72 hrs by MTT assay; format: functional, cell-based; conditions: K562, 72 h
PC-3 = experiment: cells; conditions: Homo sapiens, PC-3, 72 h
Description: Cytotoxicity against human PC3 cells after 72 hrs by MTT assay

Mus musculus [10] = experiment: Toxicity in human A549 cells xenografted BALB/C mouse assessed as mortality at 2 mg/kg, ip for 5 days; format: organism-based; conditions: in vivo, 120 h
Mus musculus [11] = experiment: Toxicity in human A549 cells xenografted BALB/C mouse assessed as change in body weight at 2 mg/kg, ip for 5 days; format: organism-based; conditions: in vivo, 120 h
A549 [12] = experiment: Antitumor activity against human A549 cells xenografted in BALB/C mouse assessed as tumor growth inhibition at 2 mg/kg, ip for 5 days; format: functional, organism-based
[13] = target: T1, DNA topoisomerase 1 (Homo sapiens); experiment: Inhibition of Top1 (unknown origin)-mediated pBR322 DNA cleavage using ethidium bromide staining at 100 uM after 15 mins by electrophoresis analysis
[14] = target: T1, DNA topoisomerase 1 (Homo sapiens); experiment: Inhibition of Top1 (unknown origin)-mediated pBR322 DNA cleavage using ethidium bromide staining at 50 uM after 15 mins by electrophoresis analysis
Mus musculus [15] = experiment: Toxicity in human A549 cells xenografted BALB/C mouse assessed as change in body weight at 0.5 mg/kg, ip for 5 days; format: organism-based; conditions: in vivo, 120 h
A549 [16] = experiment: Induction of apoptosis in human A549 cells assessed as apoptotic cells at 5 uM after 48 hrs by flow cytometry analysis; format: functional
A549 [17] = experiment: Cell cycle arrest in human A549 cells assessed as accumulation at G2/M phase using propidium iodide staining at 5 uM after 36 hrs by flow cytometry analysis; format: functional
A549 [18] = experiment: Cell cycle arrest in human A549 cells assessed as accumulation at G2/M phase using propidium iodide staining at 5 uM after 12 hrs by flow cytometry analysis; format: functional, cell-based
A549 [19] = experiment: Induction of apoptosis in human A549 cells assessed as change in cell morphology at 5 uM after 36 hrs by light microscope analysis; format: functional, cell-based
Tubulin = experiment: Inhibition of brain tubulin (unknown origin) polymerization measured up to 15 to 30 mins; set-up: species or system Homo sapiens
Tubulin (Homo sapiens) = Tubulin (Homo sapiens) (UniProt P68371+Q9H4B7+P0DPH7+P68366+Q13509+Q71U36+P04350+Q3ZCM7+P07437+P68363+Q9BQE3+Q6PEY2+Q13885+Q9BVA1+Q9BUF5); experiment: Inhibition of brain tubulin (unknown origin) polymerization at 5 uM measured up to 15 to 30 mins

Chain of DNA topoisomerase 2-alpha (Homo sapiens) (P11388 whole entry): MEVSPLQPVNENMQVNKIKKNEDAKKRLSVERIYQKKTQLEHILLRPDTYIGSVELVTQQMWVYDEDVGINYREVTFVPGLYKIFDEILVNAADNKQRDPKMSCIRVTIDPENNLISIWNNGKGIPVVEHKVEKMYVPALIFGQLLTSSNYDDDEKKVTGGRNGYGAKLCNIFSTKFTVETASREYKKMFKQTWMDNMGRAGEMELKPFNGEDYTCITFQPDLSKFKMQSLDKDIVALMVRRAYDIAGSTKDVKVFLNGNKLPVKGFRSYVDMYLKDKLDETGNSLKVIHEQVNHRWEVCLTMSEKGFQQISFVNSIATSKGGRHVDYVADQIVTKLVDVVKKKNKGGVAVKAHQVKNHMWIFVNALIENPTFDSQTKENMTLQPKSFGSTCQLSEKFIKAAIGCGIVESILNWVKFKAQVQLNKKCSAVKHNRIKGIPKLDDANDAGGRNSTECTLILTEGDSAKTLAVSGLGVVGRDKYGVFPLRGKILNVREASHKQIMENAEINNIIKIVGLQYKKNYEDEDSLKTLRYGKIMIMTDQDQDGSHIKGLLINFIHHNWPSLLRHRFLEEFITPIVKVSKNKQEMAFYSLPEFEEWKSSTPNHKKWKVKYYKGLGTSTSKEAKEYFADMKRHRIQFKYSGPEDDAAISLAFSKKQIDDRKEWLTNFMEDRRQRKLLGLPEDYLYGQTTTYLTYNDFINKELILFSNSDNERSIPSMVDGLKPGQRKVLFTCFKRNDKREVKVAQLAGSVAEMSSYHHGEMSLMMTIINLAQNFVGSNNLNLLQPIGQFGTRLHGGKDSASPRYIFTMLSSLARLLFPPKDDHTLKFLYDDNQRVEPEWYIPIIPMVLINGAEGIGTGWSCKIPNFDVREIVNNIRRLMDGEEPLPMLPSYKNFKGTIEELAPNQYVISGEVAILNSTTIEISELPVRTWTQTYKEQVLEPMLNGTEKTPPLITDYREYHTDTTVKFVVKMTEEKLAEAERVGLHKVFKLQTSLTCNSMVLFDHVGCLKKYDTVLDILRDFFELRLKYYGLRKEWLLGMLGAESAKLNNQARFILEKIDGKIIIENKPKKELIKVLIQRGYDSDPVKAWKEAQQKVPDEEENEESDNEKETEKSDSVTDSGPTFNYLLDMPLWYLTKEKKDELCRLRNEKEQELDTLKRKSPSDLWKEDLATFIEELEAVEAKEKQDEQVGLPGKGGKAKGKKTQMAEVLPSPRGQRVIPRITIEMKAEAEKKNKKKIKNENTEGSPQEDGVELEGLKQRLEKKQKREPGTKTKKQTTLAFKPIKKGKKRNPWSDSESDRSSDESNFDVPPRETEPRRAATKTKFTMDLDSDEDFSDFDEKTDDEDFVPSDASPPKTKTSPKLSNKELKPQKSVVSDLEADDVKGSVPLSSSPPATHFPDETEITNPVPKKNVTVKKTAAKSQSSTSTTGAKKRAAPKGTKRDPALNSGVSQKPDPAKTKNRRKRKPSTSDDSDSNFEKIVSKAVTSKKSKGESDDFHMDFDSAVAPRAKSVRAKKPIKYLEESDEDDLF

SMILES	inhibition [1]	inhibition [2]	IC50 (MDA-MB-435) [nM]	IC50 (HCT-116 [3]) [nM]	IC50 (A549 [4]) [nM]	IC50 [5] [nM]	growth inhibition (GI) (HCT-116 [6])	IC50 [7] [nM]	IC50 [8] [nM]	IC50 (NCI-H446) [nM]	IC50 [9] [nM]	IC50 (K562) [nM]	IC50 (PC-3) [nM]	inhibition [13]	inhibition [14]	other results
Nc1ccc2c(c1)C(=O)N1CCc3c([nH]c4ccc(O)cc34)C1O2 (stereo unspecified)	inactive	Active	600	500	29100											
O=C1c2cc(O)ccc2OC2c3[nH]c4ccc(O)cc4c3CCN12 (stereo unspecified)	Active	Active	800	1200	3800	1100	Active	60	1200	> 200000	5150	< 3	840			
Cc1ccc2c(c1)OC1c3[nH]c4ccc(O)cc4c3CCN1C2=O (stereo unspecified)			< 3	< 3	6500											Activity (Mus musculus [10]): Non-toxic; Activity (Mus musculus [11]): Non-toxic; growth inhibition (GI) (A549 [12]): Active
O=C1c2cc(O)ccc2SC2c3[nH]c4ccc(O)cc4c3CCN12 (stereo unspecified)	Active	Active	< 3	< 3	700	490	Active	< 3	140	16600	3500	< 3	< 3	Active	Active	
CC[C@@]1(O)C(=O)OCc2c1cc1n(c2=O)Cc2cc3ccccc3nc2-1 [CAMPTOTHECIN]			1000	90	100	960		140	< 3	> 200000	710	< 3	2500			
COc1ccc2c(c1)C(=O)N1CCc3c([nH]c4ccc(O)cc34)C1S2 (stereo unspecified)	inactive	Active	< 3	< 3	300	2200		< 3	1200	> 200000	7300	< 3	430	Active	Active	
CC[C@@]1(O)C(=O)OCc2c1cc1n(c2=O)Cc2cc3c(CN(C)C)c(O)ccc3nc2-1 [TOPOTECAN]			400	700	7400											Activity (Mus musculus [15]): Toxic
O=C1c2ccccc2SC2c3[nH]c4ccc(O)cc4c3CCN12 (stereo unspecified)	inactive	Active	< 3	40	50		Active									Activity (A549 [16]): 6%; Activity (A549 [17]): 68.2%; Activity (Mus musculus [10]): Non-toxic; Activity (A549 [18]): Active; Activity (Mus musculus [11]): Non-toxic; growth inhibition (GI) (A549 [12]): Active; Activity (A549 [19]): Active
O=C1c2cc(Cl)ccc2SC2c3[nH]c4ccc(O)cc4c3CCN12 (stereo unspecified)	Active	Active	< 3	< 3	20	2100	Active	< 3	1300	> 200000	6900	< 3	370	Active	Active	IC50 (Tubulin): 4500 nM; inhibition (Tubulin (Homo sapiens)): 63%
O=C1c2ccccc2SC2c3[nH]c4ccccc4c3CCN12 (stereo unspecified)	inactive	Active												Active	Active	
CCC1=C[C@@H]2CN(C1)Cc1c([nH]c3ccccc13)[C@@](C(=O)OC)(c1cc3c(cc1OC)N(C)[C@H]1[C@@](O)(C(=O)OC)[C@H](OC(C)=O)[C@]4(CC)C=CCN5CC[C@]31[C@@H]54)C2 [VINORELBINE]																IC50 (Tubulin): 2000 nM
COc1ccc2[nH]c3c(c2c1)CCN1C(=O)c2ccccc2S(=O)(=O)C31 (stereo unspecified)	Active	Active	> 200000	> 200000	> 200000									Active	Active	
O=C1c2ccccc2OC2c3[nH]c4ccc(O)cc4c3CCN12 (stereo unspecified)	inactive	Active	1400	2300	4000											
O=C1c2cc(Cl)ccc2OC2c3[nH]c4ccc(O)cc4c3CCN12 (stereo unspecified)	inactive	Active	60	< 3	5200	1800	Active	< 3	1100	> 200000	5560	< 3	400			Activity (A549 [16]): 6.7%; Activity (A549 [17]): 63.7%; Activity (Mus musculus [10]): Non-toxic; IC50 (Tubulin): 5300 nM; Activity (A549 [18]): Active; Activity (Mus musculus [11]): Non-toxic; growth inhibition (GI) (A549 [12]): Active; inhibition (Tubulin (Homo sapiens)): 48%; Activity (A549 [19]): Active

— ChEMBL document CHEMBL3600310 (J Med Chem, 2015)
